From ChEMBL document CHEMBL1201862, “PubChem BioAssay data set” (2004)
The source made the active and inactive calls.

Tests used:
[1] = target: DNA (cytosine-5)-methyltransferase 1 (Homo sapiens, UniProt P26358); experiment: DNMT1 methyltransferase inhibitors, confirmation, biochemical, fluorescent molecular beacon (AID 602386); type: functional
[2] = inhibitors of Vif binding to APOBEC3G peptide, primary screen, biochemical, TR-FRET, GST-Vif 1-94, biotin-A3G peptide, dose response retest (AID 1117319); type: functional;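 further: TR-FRET signal of purified GST-Vif binding a biotinylated A3G peptide; inhibitors lower the FRET signal by blocking Vif and A3G binding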
[3] = target: T1, Tyrosine-protein phosphatase non-receptor type 5 (Homo sapiens, UniProt P54829); experiment: STEP phosphatase inhibitors, confirmation, biochemical, fluorescence intensity, uHTS hits (AID 602372); type: functional; conditions: read-out: IC50_Mean
T1 sequence (P54829 whole entry): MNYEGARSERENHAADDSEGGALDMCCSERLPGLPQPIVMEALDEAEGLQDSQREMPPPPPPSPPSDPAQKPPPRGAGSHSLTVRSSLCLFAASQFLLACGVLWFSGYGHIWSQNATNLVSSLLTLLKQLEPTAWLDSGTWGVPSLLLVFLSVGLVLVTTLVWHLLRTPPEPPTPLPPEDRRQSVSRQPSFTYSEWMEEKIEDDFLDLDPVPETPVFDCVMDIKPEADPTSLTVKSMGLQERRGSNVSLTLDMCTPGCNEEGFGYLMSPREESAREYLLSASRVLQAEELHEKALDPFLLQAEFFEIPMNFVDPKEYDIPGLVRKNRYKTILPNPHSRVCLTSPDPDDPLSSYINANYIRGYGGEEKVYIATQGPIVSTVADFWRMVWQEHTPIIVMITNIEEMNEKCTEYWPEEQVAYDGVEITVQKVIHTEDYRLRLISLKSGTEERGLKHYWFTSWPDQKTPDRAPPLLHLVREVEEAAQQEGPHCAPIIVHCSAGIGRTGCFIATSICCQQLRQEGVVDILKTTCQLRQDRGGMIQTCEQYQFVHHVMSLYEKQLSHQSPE

[4] = target: T2, Tyrosine-protein phosphatase non-receptor type 11 (Homo sapiens, UniProt Q06124); experiment: SHP2 phosphatase inhibition, dose response, selectivity assay for STEP inhibitor project, biochemical (AID 602367); type: functional; conditions: read-out: IC50_Mean
T2 sequence (Q06124 whole entry): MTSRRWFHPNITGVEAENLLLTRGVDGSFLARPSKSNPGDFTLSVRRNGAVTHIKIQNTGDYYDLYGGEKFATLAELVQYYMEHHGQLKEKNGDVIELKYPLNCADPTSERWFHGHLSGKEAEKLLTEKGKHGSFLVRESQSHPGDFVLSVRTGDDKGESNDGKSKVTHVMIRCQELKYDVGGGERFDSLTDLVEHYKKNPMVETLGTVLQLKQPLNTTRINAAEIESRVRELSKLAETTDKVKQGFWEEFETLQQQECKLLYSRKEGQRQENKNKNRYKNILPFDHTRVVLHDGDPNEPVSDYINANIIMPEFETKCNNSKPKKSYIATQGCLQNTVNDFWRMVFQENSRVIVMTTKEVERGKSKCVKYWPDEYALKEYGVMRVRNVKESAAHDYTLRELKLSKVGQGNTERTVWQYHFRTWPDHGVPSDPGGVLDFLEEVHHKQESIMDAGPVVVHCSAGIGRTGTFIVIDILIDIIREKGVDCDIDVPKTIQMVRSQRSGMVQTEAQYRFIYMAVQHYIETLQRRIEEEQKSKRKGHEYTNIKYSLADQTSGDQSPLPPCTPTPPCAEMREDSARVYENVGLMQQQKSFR

Estrogen receptor = target: T3, Estrogen receptor (Homo sapiens, UniProt P03372);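 further: potency for inhibiting coactivator peptide recruitment to the receptor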
T3 sequence (P03372 whole entry): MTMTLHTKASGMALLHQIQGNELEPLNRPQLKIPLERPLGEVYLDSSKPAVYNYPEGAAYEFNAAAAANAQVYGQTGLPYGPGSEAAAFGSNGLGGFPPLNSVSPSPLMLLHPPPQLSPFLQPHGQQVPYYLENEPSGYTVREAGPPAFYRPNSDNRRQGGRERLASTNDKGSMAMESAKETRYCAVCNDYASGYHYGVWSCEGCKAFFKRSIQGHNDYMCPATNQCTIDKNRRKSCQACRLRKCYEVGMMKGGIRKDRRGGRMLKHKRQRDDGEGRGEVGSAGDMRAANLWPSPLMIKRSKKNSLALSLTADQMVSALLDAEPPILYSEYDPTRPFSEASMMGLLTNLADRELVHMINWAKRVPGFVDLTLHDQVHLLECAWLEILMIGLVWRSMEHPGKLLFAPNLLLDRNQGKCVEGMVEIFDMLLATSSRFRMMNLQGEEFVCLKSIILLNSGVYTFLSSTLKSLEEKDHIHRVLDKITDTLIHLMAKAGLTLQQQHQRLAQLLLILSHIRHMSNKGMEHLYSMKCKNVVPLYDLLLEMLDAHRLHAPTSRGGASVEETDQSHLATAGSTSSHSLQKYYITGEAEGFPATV

[5] = target: T4, Tyrosine-protein phosphatase non-receptor type 7 (Homo sapiens, UniProt P35236); experiment: inhibitors of human HePTP phosphatase, […], biochemical, absorbance, leukemia target (AID 521); type: functional
T4 sequence (P35236 whole entry): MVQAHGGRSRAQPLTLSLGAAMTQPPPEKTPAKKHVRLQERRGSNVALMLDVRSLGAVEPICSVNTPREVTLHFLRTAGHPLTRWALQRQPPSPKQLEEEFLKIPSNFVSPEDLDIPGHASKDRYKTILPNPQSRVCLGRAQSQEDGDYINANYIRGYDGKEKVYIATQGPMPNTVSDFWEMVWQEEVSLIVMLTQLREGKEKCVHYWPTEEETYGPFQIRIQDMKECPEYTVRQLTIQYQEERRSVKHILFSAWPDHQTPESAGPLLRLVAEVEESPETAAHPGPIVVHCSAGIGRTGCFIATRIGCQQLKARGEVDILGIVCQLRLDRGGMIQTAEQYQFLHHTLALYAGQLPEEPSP

[6] = target: Dual specificity protein phosphatase 3 (Homo sapiens, UniProt P51452); experiment: VHR phosphatase inhibition, dose response, selectivity assay for STEP inhibitor project, biochemical (AID 602374); type: functional; conditions: read-out: IC50_Mean
Bcl-2-like protein 10 = Bcl-2-like protein 10 (Homo sapiens, UniProt Q9HD36); experiment: displacers of TR3 peptide from Bcl-B, primary screen, selectivity assay for Bfl-1 inhibitor project, biochemical, fluorescence polarization, FITC-TR3 peptide (AID 748);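 further: fluorescence polarization from a fluorescein-labelled TR3 peptide binding purified Bcl-B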
[7] = target: T5, Tyrosine-protein phosphatase non-receptor type 22 (Homo sapiens, UniProt Q9Y2R2); experiment: PTPN22 phosphatase inhibition, dose response, selectivity assay for STEP inhibitor project, biochemical (AID 624241); type: functional
T5 sequence (Q9Y2R2 whole entry): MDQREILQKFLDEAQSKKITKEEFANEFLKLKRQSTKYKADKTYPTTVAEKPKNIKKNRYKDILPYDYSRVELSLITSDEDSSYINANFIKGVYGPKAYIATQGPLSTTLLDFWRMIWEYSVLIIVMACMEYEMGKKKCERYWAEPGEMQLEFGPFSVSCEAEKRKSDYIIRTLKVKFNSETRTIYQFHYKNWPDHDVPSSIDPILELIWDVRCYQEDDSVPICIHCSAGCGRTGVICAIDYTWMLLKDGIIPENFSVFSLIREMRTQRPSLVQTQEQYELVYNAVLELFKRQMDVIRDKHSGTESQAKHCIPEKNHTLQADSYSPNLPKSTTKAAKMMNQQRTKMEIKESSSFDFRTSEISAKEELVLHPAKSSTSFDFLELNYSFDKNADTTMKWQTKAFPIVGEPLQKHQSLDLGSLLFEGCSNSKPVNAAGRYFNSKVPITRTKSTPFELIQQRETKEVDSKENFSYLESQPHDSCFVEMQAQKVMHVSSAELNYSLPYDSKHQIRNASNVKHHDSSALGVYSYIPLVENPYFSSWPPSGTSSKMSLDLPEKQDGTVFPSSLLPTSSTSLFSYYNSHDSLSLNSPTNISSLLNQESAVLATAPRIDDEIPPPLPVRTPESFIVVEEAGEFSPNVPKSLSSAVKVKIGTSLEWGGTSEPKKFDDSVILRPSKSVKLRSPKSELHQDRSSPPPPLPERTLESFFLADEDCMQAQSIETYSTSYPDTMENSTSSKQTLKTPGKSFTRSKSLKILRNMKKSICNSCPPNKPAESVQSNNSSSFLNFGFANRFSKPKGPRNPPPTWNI

Estrogen receptor beta [8] = target: T6, Estrogen receptor beta (Homo sapiens, UniProt Q92731); experiment: ERβ–SRC-3 coactivator interaction inhibitors, confirmation, orthogonal assay, biochemical, ELISA, streptavidin-HRP readout (AID 1060)
Estrogen receptor beta [9] = target: T6, Estrogen receptor beta
[10] = target: Fructose-bisphosphate aldolase (Mycobacterium tuberculosis, UniProt P9WQA3); experiment: Fluorescence-based biochemical high throughput dose response assay for inhibitors of the fructose-bisphosphate aldolase (FBA) of M. tuberculosis.; type: functional
[11] = HEK293T cell cytotoxicity, dose response, cytotoxicity control for HIV Vif inhibitor project, cherry-picks (AID 652208); type: functional, cell-based
Melanocortin receptor 4 = Melanocortin receptor 4 (Homo sapiens, UniProt P32245); type: functional, cell-based;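 further: Cell-based assay with luminescence read-out, confirmatory dose-response testing for agonist activity of biased ligands at MC4R; human U2OS cells with tagged receptor and beta-arrestin; potency of agonists that increase receptor coupling to beta-arrestin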
[12] = cytotoxicity in OVCAR8 ovarian cancer cells, dose response, PAX8 project, cell-based, plate reader, dry powder samples (AID 743197); type: functional; conditions: OVCAR-8
[13] = NIH:OVCAR-3 ovarian cancer cell cytotoxicity, dose response, PAX8 inhibitor project, plate reader, dry powder samples (AID 743044); type: functional, cell-based
Paired box protein Pax-8 = Paired box protein Pax-8 (Homo sapiens, UniProt Q06710); experiment: inhibitors of PAX8-driven TPO luciferase reporter, dose response, RMG-I cells, cherry-pick (AID 687027); type: functional, cell-based;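 further: luciferase reporter driven by Pax8 target thyroperoxidase promoter measured by SteadyGlo luminescence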
[14] = inhibitors of CMV-promoter luciferase reporter, dose response, counter-screen for Pax8 inhibitor project, cell-based, HEK293, luminescence, dry powder (AID 743020); type: functional
[15] = IGROV1 ovarian cancer cell cytotoxicity, dose response, PAX8 inhibitor project, plate reader, dry powder samples (AID 743043); type: functional, cell-based; conditions: IGROV-1
Beta-lactamase [16] = target: T7, Beta-lactamase (Pseudomonas aeruginosa, UniProt Q79MP6); experiment: […] counterscreen for selective VIM-2 inhibitors: dose response biochemical high throughput screening assay to identify inhibitors of IMP-1 metallo-beta-lactamase.
Beta-lactamase [17] = target: Beta-lactamase (Salmonella choleraesuis (strain SC-B67), UniProt Q5J463); experiment: Epi-absorbance-based counterscreen for selective VIM-2 inhibitors: dose response biochemical high throughput screening assay to identify inhibitors of TEM-1 serine-beta-lactamase.
Beta Lactamase [18] = target: T8, Beta Lactamase (Pseudomonas aeruginosa, UniProt Q932Y6); experiment: VIM-2 inhibitor FRET-based artefact check, dose response, artefact control for selective VIM-2 inhibitor project, biochemical, FRET readout, CCF2 substrate (AID 1926)
Beta Lactamase [19] = target: T8, Beta Lactamase; experiment: VIM-2 metallo-beta-lactamase inhibitor potency, dose response, biochemical, epi-absorbance readout, selective inhibitors (AID 1919)
Beta-lactamase [20] = target: T7, Beta-lactamase; experiment: IMP-1 metallo-beta-lactamase inhibitors, dose response, selectivity assay for VIM-2 inhibitor project, biochemical, epi-absorbance (AID 1920)
[21] = T. cruzi growth inhibition in host cells, dose response, cell-based, plate reader, dry powder, set 2 (AID 652275); type: functional

T8 sequence (Q932Y6 whole entry): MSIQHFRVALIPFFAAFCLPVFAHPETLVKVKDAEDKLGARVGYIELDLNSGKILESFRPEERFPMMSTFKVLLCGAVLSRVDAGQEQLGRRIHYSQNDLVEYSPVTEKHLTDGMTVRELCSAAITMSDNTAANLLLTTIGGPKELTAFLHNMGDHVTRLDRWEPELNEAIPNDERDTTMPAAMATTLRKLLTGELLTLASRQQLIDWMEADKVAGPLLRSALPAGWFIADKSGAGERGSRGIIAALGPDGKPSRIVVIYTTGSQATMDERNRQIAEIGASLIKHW
T7 sequence (Q79MP6 whole entry): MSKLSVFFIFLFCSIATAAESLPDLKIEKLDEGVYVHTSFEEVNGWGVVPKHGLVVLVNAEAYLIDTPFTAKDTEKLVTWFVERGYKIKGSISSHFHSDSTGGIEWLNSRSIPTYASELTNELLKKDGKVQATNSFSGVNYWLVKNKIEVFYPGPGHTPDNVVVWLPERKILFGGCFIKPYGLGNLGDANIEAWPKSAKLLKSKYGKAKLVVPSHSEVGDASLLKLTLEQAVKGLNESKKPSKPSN
T6 sequence (Q92731 whole entry): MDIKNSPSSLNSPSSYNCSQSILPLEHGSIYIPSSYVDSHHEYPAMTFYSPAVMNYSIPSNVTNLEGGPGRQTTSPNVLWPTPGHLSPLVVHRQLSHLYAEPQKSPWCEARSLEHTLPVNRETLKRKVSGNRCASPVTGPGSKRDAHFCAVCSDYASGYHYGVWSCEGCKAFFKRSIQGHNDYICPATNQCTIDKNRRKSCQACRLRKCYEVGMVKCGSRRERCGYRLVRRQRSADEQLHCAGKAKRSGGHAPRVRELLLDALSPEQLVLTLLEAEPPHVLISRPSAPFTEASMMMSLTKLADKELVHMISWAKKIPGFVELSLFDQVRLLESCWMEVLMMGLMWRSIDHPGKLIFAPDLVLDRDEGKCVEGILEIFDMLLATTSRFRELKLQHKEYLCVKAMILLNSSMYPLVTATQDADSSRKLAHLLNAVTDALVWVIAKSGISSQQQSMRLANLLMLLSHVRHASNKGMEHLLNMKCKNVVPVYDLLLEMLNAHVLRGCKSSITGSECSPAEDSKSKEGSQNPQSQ
Chain of Paired box protein Pax-8 (Q06710 whole entry): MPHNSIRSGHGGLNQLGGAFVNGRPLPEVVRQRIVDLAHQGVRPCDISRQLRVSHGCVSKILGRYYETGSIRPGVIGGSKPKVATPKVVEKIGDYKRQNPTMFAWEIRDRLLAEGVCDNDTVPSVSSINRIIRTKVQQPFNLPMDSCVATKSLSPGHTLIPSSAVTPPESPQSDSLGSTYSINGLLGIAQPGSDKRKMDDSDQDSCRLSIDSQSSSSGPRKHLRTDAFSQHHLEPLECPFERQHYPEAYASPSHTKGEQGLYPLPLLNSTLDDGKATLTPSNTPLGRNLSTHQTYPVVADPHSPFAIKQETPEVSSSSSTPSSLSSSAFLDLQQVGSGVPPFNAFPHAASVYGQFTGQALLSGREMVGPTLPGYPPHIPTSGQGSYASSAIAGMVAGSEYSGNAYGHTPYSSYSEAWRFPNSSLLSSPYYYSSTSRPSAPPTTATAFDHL
Chain of Beta-lactamase (Salmonella choleraesuis (strain SC-B67), UniProt Q5J463) (Q5J463 whole entry): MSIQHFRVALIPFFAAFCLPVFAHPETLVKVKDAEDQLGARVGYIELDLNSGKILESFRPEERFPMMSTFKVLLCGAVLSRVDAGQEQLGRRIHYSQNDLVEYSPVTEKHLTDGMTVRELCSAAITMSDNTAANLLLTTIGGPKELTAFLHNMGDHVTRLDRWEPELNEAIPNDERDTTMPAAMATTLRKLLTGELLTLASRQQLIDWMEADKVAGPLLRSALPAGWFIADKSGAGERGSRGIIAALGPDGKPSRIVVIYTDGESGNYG
Chain of Melanocortin receptor 4 (P32245 whole entry): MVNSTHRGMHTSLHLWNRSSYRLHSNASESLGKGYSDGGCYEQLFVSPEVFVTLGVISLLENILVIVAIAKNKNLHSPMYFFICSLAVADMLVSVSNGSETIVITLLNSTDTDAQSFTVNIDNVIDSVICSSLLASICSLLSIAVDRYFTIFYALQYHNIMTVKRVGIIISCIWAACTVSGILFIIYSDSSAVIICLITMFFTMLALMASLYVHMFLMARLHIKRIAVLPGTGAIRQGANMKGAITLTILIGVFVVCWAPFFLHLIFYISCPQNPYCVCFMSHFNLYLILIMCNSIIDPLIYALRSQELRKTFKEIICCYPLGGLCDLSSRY
Chain of DNA (cytosine-5)-methyltransferase 1 (P26358 whole entry): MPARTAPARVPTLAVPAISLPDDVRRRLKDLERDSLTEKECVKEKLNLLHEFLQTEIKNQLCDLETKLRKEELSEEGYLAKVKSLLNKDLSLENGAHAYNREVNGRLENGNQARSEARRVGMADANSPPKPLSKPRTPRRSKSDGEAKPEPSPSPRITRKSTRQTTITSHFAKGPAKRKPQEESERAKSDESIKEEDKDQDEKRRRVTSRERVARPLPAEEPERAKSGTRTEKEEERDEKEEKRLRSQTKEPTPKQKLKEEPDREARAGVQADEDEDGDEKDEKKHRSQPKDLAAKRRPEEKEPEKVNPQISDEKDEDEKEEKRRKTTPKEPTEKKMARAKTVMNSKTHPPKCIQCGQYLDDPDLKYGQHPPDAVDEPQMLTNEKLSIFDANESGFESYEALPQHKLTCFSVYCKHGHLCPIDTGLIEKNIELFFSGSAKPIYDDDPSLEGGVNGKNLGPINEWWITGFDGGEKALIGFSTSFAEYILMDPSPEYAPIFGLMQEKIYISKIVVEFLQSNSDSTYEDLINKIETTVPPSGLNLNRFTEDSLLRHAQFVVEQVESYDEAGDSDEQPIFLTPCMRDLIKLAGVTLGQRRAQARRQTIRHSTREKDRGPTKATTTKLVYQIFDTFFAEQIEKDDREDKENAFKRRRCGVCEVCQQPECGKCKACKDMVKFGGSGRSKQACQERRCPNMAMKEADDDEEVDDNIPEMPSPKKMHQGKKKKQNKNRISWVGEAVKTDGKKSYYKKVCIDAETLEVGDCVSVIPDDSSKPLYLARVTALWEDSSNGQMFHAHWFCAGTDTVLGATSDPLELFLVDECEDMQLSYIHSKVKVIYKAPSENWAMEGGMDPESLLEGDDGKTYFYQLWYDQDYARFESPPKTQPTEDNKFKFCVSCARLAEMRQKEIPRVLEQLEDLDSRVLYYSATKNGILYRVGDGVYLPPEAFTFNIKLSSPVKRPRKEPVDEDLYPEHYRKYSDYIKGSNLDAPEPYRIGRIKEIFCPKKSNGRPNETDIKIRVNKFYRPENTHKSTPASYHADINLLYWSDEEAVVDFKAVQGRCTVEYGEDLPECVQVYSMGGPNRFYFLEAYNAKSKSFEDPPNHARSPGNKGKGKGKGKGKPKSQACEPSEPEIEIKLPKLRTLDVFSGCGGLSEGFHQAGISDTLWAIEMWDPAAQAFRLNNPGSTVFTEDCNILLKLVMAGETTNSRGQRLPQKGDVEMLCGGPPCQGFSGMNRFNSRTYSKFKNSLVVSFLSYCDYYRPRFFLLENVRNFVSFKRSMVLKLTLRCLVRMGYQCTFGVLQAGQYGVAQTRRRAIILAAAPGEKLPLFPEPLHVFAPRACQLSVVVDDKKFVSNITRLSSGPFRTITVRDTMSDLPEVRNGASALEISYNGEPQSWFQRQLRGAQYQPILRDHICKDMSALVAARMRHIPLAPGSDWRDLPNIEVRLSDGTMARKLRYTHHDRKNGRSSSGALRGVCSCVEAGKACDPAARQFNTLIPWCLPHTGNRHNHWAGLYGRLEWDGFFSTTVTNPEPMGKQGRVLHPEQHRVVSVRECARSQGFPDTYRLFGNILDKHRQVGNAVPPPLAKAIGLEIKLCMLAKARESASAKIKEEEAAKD
Chain of Bcl-2-like protein 10 (Q9HD36 whole entry): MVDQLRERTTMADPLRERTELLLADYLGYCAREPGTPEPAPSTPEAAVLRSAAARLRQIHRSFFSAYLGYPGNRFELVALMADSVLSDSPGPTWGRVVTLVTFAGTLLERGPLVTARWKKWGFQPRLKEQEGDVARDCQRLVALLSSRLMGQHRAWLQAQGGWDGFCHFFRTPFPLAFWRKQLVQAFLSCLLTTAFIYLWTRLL
Chain of Fructose-bisphosphate aldolase (P9WQA3 whole entry): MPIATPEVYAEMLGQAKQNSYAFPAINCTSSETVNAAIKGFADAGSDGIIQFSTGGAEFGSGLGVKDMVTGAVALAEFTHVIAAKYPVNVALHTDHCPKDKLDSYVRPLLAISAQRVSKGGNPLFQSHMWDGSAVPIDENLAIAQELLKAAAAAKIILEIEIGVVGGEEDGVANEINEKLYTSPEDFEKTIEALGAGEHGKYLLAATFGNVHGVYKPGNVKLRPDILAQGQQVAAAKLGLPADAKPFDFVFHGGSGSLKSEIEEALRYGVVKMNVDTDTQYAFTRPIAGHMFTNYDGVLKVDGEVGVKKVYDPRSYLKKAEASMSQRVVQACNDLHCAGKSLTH
Chain of Dual specificity protein phosphatase 3 (P51452 whole entry): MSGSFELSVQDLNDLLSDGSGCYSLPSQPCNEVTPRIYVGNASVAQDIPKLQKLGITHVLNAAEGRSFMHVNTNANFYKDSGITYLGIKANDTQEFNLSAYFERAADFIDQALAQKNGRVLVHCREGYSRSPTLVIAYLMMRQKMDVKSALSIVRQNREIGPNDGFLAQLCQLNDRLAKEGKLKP

Question: Which results are given for `COc1ccc(OC)c(N2C(=O)[C@@H]3C(c4ccccc4Cl)=NO[C@@H]3C2=O)c1`?
Answer: IC50 [1]: 4.35 µM (active); IC50 [2]: > 100 µM (active); IC50 [3]: 24.4 µM (inactive); IC50 [4]: 0.469 µM (active); IC50 (Estrogen receptor): 9.78 µM (active); IC50 [5]: 8.25 µM (active); IC50 [6]: 0.833 µM (active); IC50 (Bcl-2-like protein 10): 14.9 µM (active); IC50 [7]: > 100 µM (inactive); IC50 (Estrogen receptor beta [8]): > 50 µM (not active); IC50 (Estrogen receptor beta [9]): 2.49 µM (active)

Question: For `COc1ccc2nc(C)cc(C(=O)O)c2c1`, which IC50 [10] is on record?
Answer: The IC50 was 1.16 µM (active).

Question: What does the source list for `NC(CCc1ccccc1)c1csc(Nc2ccc(C(=O)c3ccccc3)cc2)n1` (stereo not given)?
Answer: AC50 [11]: 27.7 µM (active); EC50 (Melanocortin receptor 4): > 89.2 µM (inactive)

Question: What does the source list for `C[C@H]1CCCCO[C@H](CN(C)C(=O)c2ccccc2)[C@@H](C)CN([C@@H](C)CO)C(=O)c2cc(NC(=O)Nc3ccc(C(F)(F)F)cc3)ccc2O1`?
Answer: AC50 [12]: 47.8 µM (active); AC50 [13]: 29.5 µM (active); AC50 (Paired box protein Pax-8): 9.48 µM (active); AC50 [14]: 30.1 µM (active); AC50 [15]: 37.6 µM (active)

Question: With `CN(C)S(=O)(=O)c1cccc(NC(=S)N/N=C/C2CC=CCC2)c1` (stereo not given) as the molecule, how does the IC50 (Beta-lactamase [16]) read?
Answer: Its IC50 is > 59.6 µM (inactive).

Question: And the IC50 (Beta-lactamase [17])?
Answer: Its IC50 is > 59.6 µM (inactive).

Question: What about the IC50 (Beta Lactamase [18]) of the same molecule?
Answer: The IC50 was 0.335 µM (active).

Question: And the IC50 (Beta Lactamase [19])?
Answer: The IC50 was 1 µM (active).

Question: And the IC50 (Beta-lactamase [20])?
Answer: Its IC50 is > 59.6 µM (inactive).

Question: For `CC(C)N1CC2(CN(Cc3ccccc3Cl)C2)Oc2c(NC(=O)c3ccncc3)cccc2C1=O`, which AC50 [21] is on record?
Answer: Its AC50 is 0.463 µM (active).
